Test results: patent publication US8097759B2, “Inflammatory cytokine release inhibitor” (Institute of Medicinal Molecular Design, Inc., priority 2000, dated 2012)

System: NF-κB activation
Test: NF-κB activation reporter assay (pNFκB-Luc luciferase) under TNF-α stimulation
Format: cell-based, human
Conditions: Homo sapiens, HepG2 or HeLa cells, TNF-α 40 ng/ml, 4 hours, read-out: The rate of inhibitory activity against NF-κB activation (%); for inhibition at 1 µg/mL: Concentration of the agent: 1 μg/mL; for inhibition at 10 µg/mL: Concentration of the agent: 10 μg/mL
Protocol: Using a transfection reagent (Effectene; QIAGEN), the human hepatoma cell strain HepG2 or the human hysterocarcinoma cell strain HeLa was transfected with the firefly luciferase gene (Luc) contained plasmid (pNF κB-Luc Reporter Plasmid; […]) which contained oligonucleotide having five tandem copies of NF-κB binding sequences ([…]) on a upstream region of Luc, according to the QUAGEN's protocol and it was incuvated for 6-24 hours. After addition of TNF-α (40 ng/ml) with or without the test compound, the cells were incuvated for 4 hours, and intracellular luciferase activity was measured with PicaGene LT (TOYO INK MFG Co., Ltd.) and chemical luminescence measurement device ([…]luor Plus; TECAN). The inhibition ratio was measured as a ratio to the value of the luciferase activity without the test compound.

SMILES	inhibition at 1 µg/mL [%]	inhibition at 10 µg/mL [%]
O=C(Nc1cc(C(F)(F)F)ccc1[N+](=O)[O-])c1cc(Cl)ccc1O [Compound 116]	86.3	96.7
Cc1c(NC(=O)c2cc(Cl)ccc2O)cccc1C(F)(F)F [Compound 118]	94.1	96.3
Cc1ccc(NC(=O)c2cc(Cl)ccc2O)cc1C(F)(F)F [Compound 119]	88.1	91.7
Cc1ccc(C(F)(F)F)cc1NC(=O)c1cc(Cl)ccc1O [Compound 120]	93.8	97.9
COc1ccc(NC(=O)c2cc(Cl)ccc2O)cc1C(F)(F)F [Compound 121]	85.5	96.5
COc1cc(NC(=O)c2cc(Br)ccc2O)cc(C(F)(F)F)c1 [Compound 122]	84.5	97.2
COc1ccc(C(F)(F)F)cc1NC(=O)c1cc(Br)ccc1O [Compound 123]	76.6	93.4
CSc1ccc(C(F)(F)F)cc1NC(=O)c1cc(Cl)ccc1O [Compound 125]	94.6	99.1
O=C(Nc1cc(C(F)(F)F)ccc1N1CCCC1)c1cc(Br)ccc1O [Compound 126]	95.8	97.8
O=C(Nc1cc(C(F)(F)F)ccc1N1CCOCC1)c1cc(Br)ccc1O [Compound 127]	81.8	86.4
O=C(Nc1ccc(C(F)(F)F)cc1)c1cc(Cl)ccc1O [Compound 128]	87.2	95
O=C(Nc1ccc(C(F)(F)F)cc1Cl)c1cc(Br)ccc1O [Compound 129]	75.4	85.8
O=C(Nc1ccccc1)c1cc(Br)ccc1O [Compound 139]	-48.2	60.2
O=C(Nc1cccc(Cl)c1)c1cc(Br)ccc1O [Compound 140]	94.2	96.7
O=C(Nc1ccc(Cl)cc1)c1cc(Br)ccc1O [Compound 141]	83.3	96.4
O=C(Nc1cc(Cl)ccc1Cl)c1cc(Cl)ccc1O [Compound 142]	95.1	96.9
O=C(Nc1ccc(Cl)c(Cl)c1)c1cc(Br)ccc1O [Compound 143]	91.6	93.8
O=C(Nc1cc(F)cc(F)c1)c1cc(Br)ccc1O [Compound 144]	91.8	96.8
O=C(Nc1cc(Cl)cc(Cl)c1)c1ccccc1O [Compound 145]	92.9	95.5
O=C(Nc1cc(Cl)cc(Cl)c1)c1cc(F)ccc1O [Compound 146]	94.2	97
O=C(Nc1cc(Cl)cc(Cl)c1)c1cc(Cl)ccc1O [Compound 147]	84.5	96.8
O=C(Nc1cc(Cl)cc(Cl)c1)c1cc(Br)ccc1O [Compound 148]	77.1	92.8
O=C(Nc1cc(Cl)cc(Cl)c1)c1cc(I)ccc1O [Compound 149]	85.4	97.1
O=C(Nc1cc(Cl)cc(Cl)c1)c1cc(Br)cc(Br)c1O [Compound 150]	91.4	95.1
O=C(Nc1cc(Cl)cc(Cl)c1)c1ccc(Cl)cc1O [Compound 151]	-42.8	71.8
O=C(Nc1cc(Cl)cc(Cl)c1)c1cc([N+](=O)[O-])ccc1O [Compound 152]	-56.8	70.6
Cc1ccc(O)c(C(=O)Nc2cc(Cl)cc(Cl)c2)c1 [Compound 153]	49.1	88.7
COc1ccc(O)c(C(=O)Nc2cc(Cl)cc(Cl)c2)c1 [Compound 154]	-31	48.2

SMILES	inhibition at 1 µg/mL [%]	inhibition at 10 µg/mL [%]
O=C(Nc1cc(Cl)c(Cl)c(Cl)c1)c1cc(Br)ccc1O [Compound 155]	85.6	94.1
O=C(Nc1cc(Cl)c(O)c(Cl)c1)c1cc(Br)ccc1O [Compound 156]	7.3	74.9
O=C(Nc1c(F)c(F)c(F)c(F)c1F)c1cc(Cl)ccc1O [Compound 157]	86.2	98.1
O=C(Nc1cc([N+](=O)[O-])cc([N+](=O)[O-])c1)c1cc(Br)ccc1O [Compound 158]	91	95.6
CC(C)(C)c1ccc(C(C)(C)C)c(NC(=O)c2cc(Cl)ccc2O)c1 [Compound 159]	89.1	96.3
Cc1cc(C)cc(NC(=O)c2cc(Br)ccc2O)c1 [Compound 161]	86.3	92.6
CC(C)(C)c1cc(NC(=O)c2cc(Br)ccc2O)cc(C(C)(C)C)c1 [Compound 163]	70.9	82
O=C(Nc1cccc(-c2ccccc2)c1)c1cc(Cl)ccc1O [Compound 165]	88.2	95.1
COc1ccc(-c2ccccc2)cc1NC(=O)c1cc(Cl)ccc1O [Compound 166]	82.4	97.9
COc1ccc(OC)c(NC(=O)c2cc(Br)ccc2O)c1 [Compound 167]	32.4	95.7
COc1cc(NC(=O)c2cc(Br)ccc2O)cc(OC)c1 [Compound 168]	38.3	96.8
CC(=O)c1cccc(NC(=O)c2cc(Cl)ccc2O)c1 [Compound 169]	14.5	88.1
O=C(Nc1nccs1)c1cc(Br)ccc1O [Compound 180]	-23.1	42.8
O=C(Nc1nc(C(F)(F)F)c(Br)s1)c1cc(Br)ccc1O [Compound 182]	85.3	94.4
CC(C)(C)c1nc(NC(=O)c2cc(Br)ccc2O)sc1C#N [Compound 184]	20	93.8
Cc1cnc(NC(=O)c2cc(Br)ccc2O)s1 [Compound 185]	-1.5	69.7
Cc1nc(NC(=O)c2cc(Br)ccc2O)sc1C [Compound 187]	4.6	67.2
Cc1sc(NC(=O)c2cc(Br)ccc2O)nc1-c1ccccc1 [Compound 188]	83.6	94.4
Cc1nc(NC(=O)c2cc(Br)ccc2O)sc1-c1cccc(C(F)(F)F)c1 [Compound 190]	-32.4	–
CCc1nc(NC(=O)c2cc(Br)ccc2O)sc1-c1ccccc1 [Compound 192]	28.8	87.6
O=C(Nc1nc(-c2ccccc2)cs1)c1cc(Br)ccc1O [Compound 202]	-41.8	78.8
O=C(O)Cc1sc(NC(=O)c2cc(Br)ccc2O)nc1-c1ccccc1 [Compound 203]	2.4	72.1
O=C(Nc1nc(-c2ccccc2)c(-c2ccccc2)s1)c1cc(Br)ccc1O [Compound 204]	-5.3	67
O=C(Nc1nc(Cc2ccccc2)c(-c2ccccc2)s1)c1cc(Br)ccc1O [Compound 205]	79.7	95
O=C(Nc1nc(C(F)(F)F)c(-c2ccccc2)s1)c1cc(Br)ccc1O [Compound 206]	85.1	89.4
CCOC(=O)c1sc(NC(=O)c2cc(Br)ccc2O)nc1C(F)(F)F [Compound 216]	87.6	96.5
CCOC(=O)c1sc(NC(=O)c2cc(-n3cccc3)ccc2O)nc1-c1ccccc1 [Compound 222]	74	90.1
